CN1C(C(=O)Nc2ccccn2)=C(O)c2sccc2S1(=O)=O
Conditions	solubility (mole fraction)
in PEG-400, 298.15 K	0.0098
in PEG-400, 303.15 K	0.0134
in PEG-400, 308.15 K	0.0178
in PEG-400, 313.15 K	0.0228
in PEG-400, 323.15 K	0.035

in water
Conditions	solubility (mole fraction)
298.15 K	4.13e-06
303.15 K	5.1e-06
308.15 K	6.62e-06
313.15 K	8.49e-06
323.15 K	1.4e-05

From BigSolDB 2.1
